Assay results: article PMC3914206

How the values were obtained:
Format in all cases: binding
panel of 442 kinases [1] = target: T1, panel of 442 kinases (Homo sapiens, UniProt Q9H0K1); conditions: kinase SIK2; compound concentration 10 µM
T1 construct: purchased KINOMEscan
From the text: (§1) We assessed the selectivity of members of this scaffold using the KINOMEscan methodology across a near comprehensive panel of 442 kinases [[18,27]].

panel of 442 kinases [2] = target: T2, panel of 442 kinases (Homo sapiens, UniProt Q8IW41); conditions: Compound Concentration 10 µM
T2 construct: purchased KINOMEscan
T2 sequence (Q8IW41 1-473): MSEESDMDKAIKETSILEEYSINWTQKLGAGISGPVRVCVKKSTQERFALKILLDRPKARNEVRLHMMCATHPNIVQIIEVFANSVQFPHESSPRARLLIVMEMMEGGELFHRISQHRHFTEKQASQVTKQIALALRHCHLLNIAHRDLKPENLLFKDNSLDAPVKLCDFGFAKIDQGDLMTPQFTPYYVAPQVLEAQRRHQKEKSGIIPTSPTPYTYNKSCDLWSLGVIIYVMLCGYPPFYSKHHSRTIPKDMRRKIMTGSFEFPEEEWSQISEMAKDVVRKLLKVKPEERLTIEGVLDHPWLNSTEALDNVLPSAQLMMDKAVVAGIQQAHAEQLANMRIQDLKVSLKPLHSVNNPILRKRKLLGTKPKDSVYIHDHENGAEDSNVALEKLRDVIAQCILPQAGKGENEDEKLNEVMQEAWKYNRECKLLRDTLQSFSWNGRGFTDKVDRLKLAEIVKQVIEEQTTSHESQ
From the text: as §1

panel of 442 kinases [3] = target: T3, panel of 442 kinases (Homo sapiens, UniProt Q9P1W9); conditions: Compound Concentration 10 µM
T3 construct: purchased KINOMEscan
From the text: as §1

T3 sequence (Q9P1W9 whole entry): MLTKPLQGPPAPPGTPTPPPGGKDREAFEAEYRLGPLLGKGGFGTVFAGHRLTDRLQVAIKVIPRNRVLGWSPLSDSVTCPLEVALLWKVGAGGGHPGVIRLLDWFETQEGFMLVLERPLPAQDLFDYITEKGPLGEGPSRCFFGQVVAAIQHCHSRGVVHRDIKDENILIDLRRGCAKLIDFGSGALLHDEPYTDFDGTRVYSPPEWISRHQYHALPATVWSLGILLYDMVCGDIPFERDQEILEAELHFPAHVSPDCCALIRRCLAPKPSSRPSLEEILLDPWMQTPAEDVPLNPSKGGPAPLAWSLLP
T1 sequence (Q9H0K1 whole entry): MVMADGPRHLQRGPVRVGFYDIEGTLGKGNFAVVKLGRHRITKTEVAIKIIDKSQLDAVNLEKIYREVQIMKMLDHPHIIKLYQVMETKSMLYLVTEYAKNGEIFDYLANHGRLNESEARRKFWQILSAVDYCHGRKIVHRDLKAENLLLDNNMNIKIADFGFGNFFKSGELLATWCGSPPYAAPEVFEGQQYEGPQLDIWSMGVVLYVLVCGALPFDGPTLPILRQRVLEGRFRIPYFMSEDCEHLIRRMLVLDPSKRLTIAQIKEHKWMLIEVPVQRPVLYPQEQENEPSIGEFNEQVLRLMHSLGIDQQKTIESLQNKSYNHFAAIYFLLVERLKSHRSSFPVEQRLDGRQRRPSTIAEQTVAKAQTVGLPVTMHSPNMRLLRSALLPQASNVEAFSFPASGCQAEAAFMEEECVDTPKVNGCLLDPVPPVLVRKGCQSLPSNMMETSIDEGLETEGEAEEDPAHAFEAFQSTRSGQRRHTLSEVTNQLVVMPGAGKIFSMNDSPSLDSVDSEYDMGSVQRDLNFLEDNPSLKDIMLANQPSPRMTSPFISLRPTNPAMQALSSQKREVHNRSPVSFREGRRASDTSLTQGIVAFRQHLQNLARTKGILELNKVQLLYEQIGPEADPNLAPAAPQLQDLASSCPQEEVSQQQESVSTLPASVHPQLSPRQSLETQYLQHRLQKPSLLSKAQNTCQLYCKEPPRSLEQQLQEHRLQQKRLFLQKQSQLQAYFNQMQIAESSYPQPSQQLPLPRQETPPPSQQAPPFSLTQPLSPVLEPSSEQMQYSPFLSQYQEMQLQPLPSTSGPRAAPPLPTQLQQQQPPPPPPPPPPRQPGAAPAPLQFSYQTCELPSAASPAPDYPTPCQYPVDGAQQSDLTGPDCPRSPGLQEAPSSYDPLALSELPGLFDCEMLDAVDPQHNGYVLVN

Row | SMILES | % Ctrl, SIK2 (panel of 442 kinases [1]) [% Ctrl] | KINOMEscan: MAPKAPK5 (panel of 442 kinases [2]) | KINOMEscan: PIM2 (panel of 442 kinases [3])
1 | COc1cc(C(=O)N2CCC(N3CCN(C)CC3)CC2)ccc1Nc1ncc2c(n1)N(C)c1ccccc1C(=O)N2C [15 (LRRK2-IN-1)] | 98 | 97 | 100
2 | COc1cc(C(=O)N2CCC(N3CCN(C)CC3)CC2)ccc1Nc1ncc2c(n1)N1CCc3cccc(c31)C(=O)N2C [Compound 24] | 81 |  | 85
3 | COc1cc(C(=O)N2CCC(N3CCN(C)CC3)CC2)ccc1Nc1ncc2c(n1)N(C1CCCC1)c1ccccc1C(=O)N2C [Compound 25, 11-cyclopentyl-2-((2-methoxy-4-(4-(4-methylpiperazin-1-yl)piperidine-1-carbonyl)phenyl)amino)-5-methyl-5H-benzo[e]pyrimido[5,4-b][1,4]diazepin-6(11H)-one] | 95 | 96 | 100
4 | CCOc1cc(C(=O)N2CCC(N3CCN(C)CC3)CC2)ccc1Nc1ncc2c(n1)N(C1CCCC1)c1ccccc1C(=O)N2C [Compound 26] | 100 | 100 | 100
